What was measured:
2-Hydroxyacid oxidase 2 = biological target: T1, 2-Hydroxyacid oxidase 2 (Rattus norvegicus, UniProt Q07523); assay: Inhibition of rat Hao2-mediated oxidation of 2-hydroxyoctanoic acid assessed as proportionate release of H2O2
T1 sequence (Q07523 whole entry): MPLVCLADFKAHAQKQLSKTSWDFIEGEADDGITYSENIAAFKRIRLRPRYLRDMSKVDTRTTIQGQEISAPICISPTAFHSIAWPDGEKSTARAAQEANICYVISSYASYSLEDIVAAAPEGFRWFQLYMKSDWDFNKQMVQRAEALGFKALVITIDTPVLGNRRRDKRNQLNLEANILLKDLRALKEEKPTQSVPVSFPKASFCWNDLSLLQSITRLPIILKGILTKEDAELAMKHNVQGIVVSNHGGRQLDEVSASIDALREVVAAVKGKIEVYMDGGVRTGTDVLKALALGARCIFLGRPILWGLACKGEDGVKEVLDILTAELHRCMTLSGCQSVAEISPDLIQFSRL

[1] = biological target: T2, 2-Hydroxyacid oxidase 2 (Homo sapiens) (UniProt Q9NYQ3); assay: Inhibition of human Hao2-mediated oxidation of 2-hydroxyoctanoic acid assessed as proportionate release of H2O2 at 10 uM
T2 sequence (whole entry): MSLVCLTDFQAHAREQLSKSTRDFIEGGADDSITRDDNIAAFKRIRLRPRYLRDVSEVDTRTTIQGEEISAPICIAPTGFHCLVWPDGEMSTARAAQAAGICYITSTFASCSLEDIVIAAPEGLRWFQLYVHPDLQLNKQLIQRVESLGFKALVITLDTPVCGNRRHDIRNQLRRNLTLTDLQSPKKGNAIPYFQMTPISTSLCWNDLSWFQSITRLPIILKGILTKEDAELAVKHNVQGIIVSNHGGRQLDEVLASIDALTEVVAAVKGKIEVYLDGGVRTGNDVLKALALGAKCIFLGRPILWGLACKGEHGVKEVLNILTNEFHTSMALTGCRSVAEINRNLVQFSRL

Rattus norvegicus = species: Rattus norvegicus; assay: Selectivity ratio of IC50 for rat Hao1 to IC50 for rat Hao2
[2] = biological target: T2, 2-Hydroxyacid oxidase 2 (Homo sapiens); assay: Inhibition of human Hao2-mediated oxidation of 2-hydroxyoctanoic acid assessed as proportionate release of H2O2 at 1 uM
[3] = biological target: T3, 2-Hydroxyacid oxidase 2 (Rattus norvegicus) (UniProt Q07523); assay: Inhibition of rat Hao2-mediated oxidation of 2-hydroxyoctanoic acid assessed as proportionate release of H2O2 at 1 uM
T3 sequence (whole entry): T1 sequence (Q07523 whole entry)

[4] = biological target: T3, 2-Hydroxyacid oxidase 2 (Rattus norvegicus); assay: Inhibition of rat Hao2-mediated oxidation of 2-hydroxyoctanoic acid assessed as proportionate release of H2O2 at 10 uM

| Structure (SMILES) | IC50 (2-Hydroxyacid oxidase 2) | inhibition [1] | Ratio IC50 (Rattus norvegicus) | inhibition [2] | inhibition [3] | inhibition [4] |
| --- | --- | --- | --- | --- | --- | --- |
| Cc1[nH]nc(C(=O)O)c1Cc1cccc(-c2cccnc2)c1 | 400 nM |  |  |  |  |  |
| Cc1n[nH]c(C(=O)O)c1Cc1cccc(-c2cccnc2)c1 |  | 45% | > 150 | 13% |  |  |
| Cc1[nH]nc(C(=O)O)c1Cc1cccc(-c2ccc(CC(=O)O)cc2)c1 | 400 nM |  |  |  |  |  |
| Cc1n[nH]c(C(=O)O)c1Cc1ccc2ccccc2n1 | 1700 nM | 18% | > 150 | 2% |  |  |
| Cc1n[nH]c(C(=O)O)c1Cc1ccc(F)cc1 |  | 14% | > 150 | 7% |  |  |
| CCOc1n[nH]c(C(=O)O)c1Cc1cccc(-c2ccc(F)cc2)c1 |  | 17% | > 150 | 1% |  |  |
| Cc1n[nH]c(C(=O)O)c1Cc1cccc(-c2ccc(CC(=O)O)cc2)c1 |  | 21% | > 150 | 2% |  |  |
| Cc1n[nH]c(C(=O)O)c1Cc1cccc(-c2ccc(C(N)=O)cc2)c1 | 200 nM | 60% | > 150 | 18% |  |  |
| Cc1[nH]nc(C(=O)O)c1Cc1ccc(C(N)=O)cc1 | 1100 nM |  |  |  |  |  |
| Cc1[nH]nc(C(=O)O)c1Cc1ccccc1C(F)(F)F | 1300 nM |  |  |  |  |  |
| Cc1nn(C)c(C(=O)O)c1Cc1cccc(-c2ccc(F)cc2)c1 |  | 3% |  | 5% | 4% | 10% |
| Cc1[nH]nc(C(=O)O)c1Cc1ccc(-c2ccc(F)cc2)cc1 | 400 nM |  |  |  |  |  |
| Cc1[nH]nc(C(=O)O)c1Cc1ccc(F)cc1 | 700 nM |  |  |  |  |  |
| Cc1n[nH]c(C(=O)O)c1Cc1cccc(-c2ccc(C#N)cc2)c1 |  | 46% | > 150 | 13% |  |  |
| Cc1c(Cc2cccc(-c3ccc(F)cc3)c2)c(C(=O)O)nn1C |  | 4% |  | 2% | 12% | 57% |
| CC(C)c1n[nH]c(C(=O)O)c1Cc1cccc(-c2ccc(F)cc2)c1 | 500 nM | 11% | > 150 | 2% |  |  |
| Cc1n[nH]c(C(=O)O)c1Cc1cccc(-c2ccncc2)c1 | 300 nM | 49% | > 150 | 13% |  |  |
| Cc1n[nH]c(C(=O)O)c1Cc1ccccc1C(F)(F)F |  | 38% | > 150 | 13% |  |  |
| Cc1[nH]nc(C(=O)O)c1Cc1cccc(C#N)c1 | 500 nM |  |  |  |  |  |
| Cc1n[nH]c(C(N)=O)c1Cc1cccc(-c2ccc(F)cc2)c1 |  | 14% |  | 1% |  |  |
| CNC(=O)c1[nH]nc(C)c1Cc1cccc(-c2ccc(F)cc2)c1 |  | 19% |  | 7% | 9% | 53% |
| Cc1n[nH]c(C(=O)O)c1CCc1cccc(-c2ccc(F)cc2)c1 | 900 nM | 45% | > 150 | 9% |  |  |

| Structure (SMILES) | IC50 (2-Hydroxyacid oxidase 2) | inhibition [1] | Ratio IC50 (Rattus norvegicus) | inhibition [2] | inhibition [3] | inhibition [4] |
| --- | --- | --- | --- | --- | --- | --- |
| Cc1[nH]nc(C(=O)O)c1Cc1cccc(-c2cccc(F)c2)c1 | 500 nM |  |  |  |  |  |
| Cc1n[nH]c(C(=O)O)c1Cc1ccc(Oc2ccccc2)cc1 |  | 43% | > 150 | 10% |  |  |
| Cc1n[nH]c(C(=O)O)c1Cc1cccc(Oc2ccccc2)c1 | 600 nM | 41% | > 150 | 12% |  |  |
| Cc1n[nH]c(C(=O)O)c1Cc1cccc(-c2ccc(F)cc2)c1 |  | 55% | > 150 | 16% |  |  |
| Cc1[nH]nc(C(=O)O)c1Cc1cccc(C(N)=O)c1 | 900 nM |  |  |  |  |  |
| Cc1[nH]nc(C(=O)O)c1Cc1cccc(-c2ccc(C#N)cc2)c1 | 300 nM |  |  |  |  |  |
| Cc1n[nH]c(C(=O)O)c1Cc1cc2ccccc2s1 |  | 29% | > 150 | 8% |  |  |
| Cc1[nH]nc(C(=O)O)c1Cc1ccc(-c2ccc(C(F)(F)F)cc2)cc1 | 1100 nM |  |  |  |  |  |
| Cc1n[nH]c(C(=O)O)c1Cc1ccc(-c2ccc(OC(F)(F)F)cc2)cc1 |  | 29% | > 150 | 11% |  |  |
| Cc1n[nH]c(C(=O)O)c1Cc1cccc(-c2ccc(C(=O)O)cc2)c1 | 1100 nM | 15% | > 150 | 3% |  |  |
| Cc1n[nH]c(C(=O)O)c1Cc1cccc(C#N)c1 |  | 19% | > 150 | 6% |  |  |
| Cc1[nH]nc(C(=O)O)c1Cc1cccc(C(F)(F)F)c1 | 300 nM |  |  |  |  |  |
| Cc1[nH]nc(C(=O)O)c1Cc1cccc2ccccc12 | 200 nM |  |  |  |  |  |
| Cc1[nH]nc(C(=O)O)c1Cc1ccc(Oc2ccccc2)cc1 | 500 nM |  |  |  |  |  |
| O=C(O)c1n[nH]c(CCc2ccccc2)c1Cc1cccc(-c2ccc(F)cc2)c1 | 800 nM |  |  |  |  |  |
| Cc1[nH]nc(C(=O)O)c1Cc1cccc(-c2ccc(C(F)(F)F)cc2)c1 | 400 nM |  |  |  |  |  |
| Cc1n[nH]c(C(=O)O)c1Cc1cccc2ccccc12 |  | 59% | > 150 | 22% |  |  |
| Cc1n[nH]c(C(=O)O)c1Cc1cccc(-c2ccccc2F)c1 | 900 nM | 22% | > 150 | 5% |  |  |
| Cc1n[nH]c(C(=O)O)c1Cc1cccc(OC(F)(F)F)c1 | 700 nM | 26% | > 150 | 2% |  |  |
| Cc1n[nH]c(C(=O)O)c1Cc1ccc2ccccc2c1 | 1100 nM | 12% | > 150 | 8% |  |  |
| Cc1n[nH]c(C(=O)O)c1Cc1cccc(F)c1 | 200 nM | 13% | > 150 | 1% |  |  |
| Cc1n[nH]c(C(=O)O)c1Cc1ccc(-c2ccc(F)cc2)cc1 |  | 25% | > 150 | 11% |  |  |

| Structure (SMILES) | IC50 (2-Hydroxyacid oxidase 2) | inhibition [1] | Ratio IC50 (Rattus norvegicus) | inhibition [2] | inhibition [3] | inhibition [4] |
| --- | --- | --- | --- | --- | --- | --- |
| Cc1n[nH]c(C(=O)NS(C)(=O)=O)c1Cc1cccc(-c2ccc(F)cc2)c1 |  | 8% |  | 8% | 0% | 3% |
| O=C(O)c1[nH]nc(-c2ccccc2)c1Cc1cccc(-c2ccc(F)cc2)c1 | 1800 nM | 14% | > 150 | 1% |  |  |
| Cc1n[nH]c(C(=O)O)c1-c1ccc(F)cc1 |  | 13% | > 150 | 3% | 1% |  |
| O=C(O)c1n[nH]c(Cc2ccccc2)c1Cc1cccc(-c2ccc(F)cc2)c1 | 700 nM |  |  |  |  |  |
| Cc1n[nH]c(C(=O)O)c1CCc1ccc(-c2ccc(F)cc2)cc1 | 900 nM | 39% | > 150 | 5% |  |  |
| Cc1n[nH]c(C(=O)O)c1Cc1ccc(-c2ccc(C(F)(F)F)cc2)cc1 |  | 14% | > 150 | 5% |  |  |
| Cc1n[nH]c(C(=O)O)c1Cc1cccc(C(N)=O)c1 |  | 8% | > 150 | 8% |  |  |
| O=C(O)c1[nH]nc(Cc2ccccc2)c1Cc1cccc(-c2ccc(F)cc2)c1 |  | 8% | > 150 | 10% |  |  |
| CCOc1[nH]nc(C(=O)O)c1Cc1cccc(-c2ccc(F)cc2)c1 | 1200 nM |  |  |  |  |  |
| Cc1[nH]nc(C(N)=O)c1Cc1cccc(-c2ccc(F)cc2)c1 | 1400 nM |  |  |  |  |  |
| Cc1n[nH]c(C(=O)O)c1Cc1cccc(C(F)(F)F)c1 |  | 23% | > 150 | 5% |  |  |
| CCc1[nH]nc(C(=O)O)c1Cc1cccc(-c2ccc(F)cc2)c1 | 300 nM |  |  |  |  |  |
| Cc1n[nH]c(C(=O)O)c1Cc1cccc(-c2ccc(C(F)(F)F)cc2)c1 |  | 30% | > 150 | 8% |  |  |
| CCc1n[nH]c(C(=O)O)c1Cc1cccc(-c2ccc(F)cc2)c1 |  | 36% | > 150 | 5% |  |  |
| Cc1n[nH]c(C(=O)O)c1Cc1cccc(-c2ccc(OC(F)(F)F)cc2)c1 | 300 nM | 34% | > 150 | 6% |  |  |
| Cc1n[nH]c(C(=O)O)c1Cc1ccc(OC(F)(F)F)cc1 | 1300 nM | 34% | > 150 | 7% |  |  |
| Cc1n[nH]c(C(=O)O)c1Cc1cccc(-c2cccc(F)c2)c1 |  | 50% | > 150 | 20% |  |  |
| Cc1n[nH]c(C(=O)O)c1Cc1ccc(C(N)=O)cc1 |  | 8% | > 150 | 0% |  |  |
| Cc1n[nH]c(C(=O)Nc2nnn[nH]2)c1Cc1cccc(-c2ccc(F)cc2)c1 |  | 0% |  | 0% | 0% | 9% |
| O=C(O)c1[nH]nc(CCc2ccccc2)c1Cc1cccc(-c2ccc(F)cc2)c1 |  | 16% | > 150 | 4% |  |  |
| Cc1[nH]nc(C(=O)O)c1Cc1ccc(-c2ccc(OC(F)(F)F)cc2)cc1 | 2000 nM |  |  |  |  |  |
